Where “and” joins values, the source holds several entries; their conditions need not be identical. Equal values may be shown once. Inconclusive results and toxic doses are left out.
System: P388 leukemia ip, CD2F1 mice, survival T/C
Assay: NCI In Vivo Anticancer Drug Screen. Data for tumor model P388 Leukemia (intraperitoneal) in CD2F1 (CDF1) mice
Conditions: endpoint: median survival time, higher = longer survival
In short: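 Mice carrying the transplanted tumor received test compound or vehicle. Survival was recorded in each group, and the value is the treated-group measurement divided by that of the vehicle-treated control group.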

[1] = dose: 60.0 mg/kg/injection, schedule: Q01DX005 (ip), vehicle: Klucel (hydroxypropylcellulose) (HPC)
[2] = dose: 120.0 mg/kg/injection, schedule: Q01DX005 (ip), vehicle: Klucel (hydroxypropylcellulose) (HPC)
[3] = dose: 240.0 mg/kg/injection, schedule: Q01DX005 (ip), vehicle: Klucel (hydroxypropylcellulose) (HPC)
[4] = dose: 50.0 mg/kg/injection, schedule: Q01DX005 (ip), vehicle: Klucel (hydroxypropylcellulose) (HPC)
[5] = dose: 100.0 mg/kg/injection, schedule: Q01DX005 (ip), vehicle: Klucel (hydroxypropylcellulose) (HPC)
[6] = dose: 50.0 mg/kg/injection, schedule: Q01DX009 (ip), vehicle: saline with Tween-80

Compound: CCN(CC)CCNc1ccc(CO)c2sc3ccccc3c(=O)c12
- T/C (dose: 5.0 mg/kg/injection, schedule: Q01DX005 (ip), vehicle: water): 110 % of control
- T/C (dose: 5.0 mg/kg/injection, schedule: Q01DX009 (ip), vehicle: water): 113 % of control
- T/C (dose: 6.25 mg/kg/injection, schedule: Q01DX005 (ip), vehicle: saline): 104 % of control
- T/C (dose: 6.25 mg/kg/injection, schedule: Q01DX005 (iv), vehicle: saline): 100 % of control
- T/C (dose: 10.0 mg/kg/injection, schedule: Q01DX005 (ip), vehicle: water): 106 % of control
- T/C (dose: 10.0 mg/kg/injection, schedule: Q01DX009 (ip), vehicle: water): 116 % of control
- T/C (dose: 10.36 mg/kg/injection, schedule: Q01DX005 (ip), vehicle: water): 118 % of control
- T/C (dose: 12.5 mg/kg/injection, schedule: Q01DX005 (ip), vehicle: saline): 101 % of control
- T/C (dose: 12.5 mg/kg/injection, schedule: Q01DX005 (iv), vehicle: saline): 104 % of control
- T/C (dose: 12.5 mg/kg/injection, schedule: Q01DX009 (ip), vehicle: water): 109 % of control
- T/C (dose: 17.28 mg/kg/injection, schedule: Q01DX005 (ip), vehicle: water): 109 % of control
- T/C (dose: 20.0 mg/kg/injection, schedule: Q01DX005 (ip), vehicle: water): 104 % of control
- T/C (dose: 20.0 mg/kg/injection, schedule: Q01DX009 (ip), vehicle: water): 118 % of control
- T/C (dose: 25.0 mg/kg/injection, schedule: Q01DX005 (ip), vehicle: saline): 109 % of control
- T/C (dose: 25.0 mg/kg/injection, schedule: Q01DX005 (iv), vehicle: saline): 108 % of control
- T/C (dose: 25.0 mg/kg/injection, schedule: Q01DX009 (ip), vehicle: water): 122 % of control
- T/C (dose: 28.8 mg/kg/injection, schedule: Q01DX005 (ip), vehicle: water): 109 % of control
- T/C (dose: 50.0 mg/kg/injection, schedule: Q01DX005 (iv), vehicle: saline): 117 % of control
- T/C (dose: 50.0 mg/kg/injection, schedule: Q01DX009 (ip), vehicle: water): 156 % of control
- T/C (dose: 80.0 mg/kg/injection, schedule: Q01DX005 (ip), vehicle: water): 151 % of control and 182 % of control
- T/C (dose: 100.0 mg/kg/injection, schedule: Q01DX009 (ip), vehicle: water): 100 % of control
- T/C (dose: 100.0 mg/kg/injection, schedule: Q04DX003 (ip), vehicle: saline with Tween-80): 118 % of control
- T/C (dose: 200.0 mg/kg/injection, schedule: Q04DX003 (ip), vehicle: saline sonified): 150 % of control
- T/C (dose: 400.0 mg/kg/injection, schedule: Q04DX003 (ip), vehicle: saline with Tween-80): 90 % of control

Compound: Clc1cc(Cl)cc(N=Cc2cccs2)c1
- T/C (dose: 50.0 mg/kg/injection, schedule: Q01DX009 (ip), vehicle: saline): 100 % of control
- T/C (dose: 100.0 mg/kg/injection, schedule: Q01DX009 (ip), vehicle: saline): 100 % of control
- T/C (dose: 200.0 mg/kg/injection, schedule: Q01DX009 (ip), vehicle: saline): 98 % of control

Compound: COC(=O)c1nc(=S)[nH]c(C(=O)OC)c1C(=O)/C=C/c1ccccc1
- T/C (dose: 60.0 mg/kg/injection, schedule: Q01DX005 (ip), vehicle: saline + Tween-80 + alcohol): 104 % of control
- T/C (dose: 120.0 mg/kg/injection, schedule: Q01DX005 (ip), vehicle: saline + Tween-80 + alcohol): 100 % of control

Compound: O=C(NC1C=Nc2ccc(Cl)cc2NC1=O)c1ccc(Cl)cc1 (stereo unspecified)
- T/C [1]: 91 % of control
- T/C [2]: 91 % of control
- T/C [3]: 93 % of control

Compound: COc1cc2c(c3c1c(=O)c1cccnc1n3C)C=CC(C)(C)O2
- T/C [4]: 101 % of control
- T/C [5]: 101 % of control
- T/C (dose: 200.0 mg/kg/injection, schedule: Q01DX005 (ip), vehicle: Klucel (hydroxypropylcellulose) (HPC)): 91 % of control

Compound: COc1cccc2c1C(=O)c1c(O)c3c(c(O)c1C2=O)CC(O)(c1cscn1)CC3OC1CC(N)C(O)C(C)O1 (stereo unspecified)
- T/C (dose: 25.0 mg/kg/injection, schedule: Q04DX003 (ip), vehicle: water): 118 % of control
- T/C (dose: 50.0 mg/kg/injection, schedule: Q04DX003 (ip), vehicle: water): 157 % of control
- T/C (dose: 100.0 mg/kg/injection, schedule: Q04DX003 (ip), vehicle: water): 124 % of control

Compound: C=CCNC(=S)N/N=C/c1nccc(-c2ccccc2)c1C
- T/C (dose: 25.0 mg/kg/injection, schedule: Q01DX009 (ip), vehicle: saline with Tween-80): 112 % of control
- T/C [6]: 86 % of control

Compound: Cc1ccc(S(=O)(=O)N/N=C/c2c(Br)nc3n2CCS3)cc1
- T/C (dose: 100.0 mg/kg/injection, schedule: Q01DX001 (ip), vehicle: Klucel (hydroxypropylcellulose) (HPC)): 94 % of control
- T/C (dose: 200.0 mg/kg/injection, schedule: Q01DX001 (ip), vehicle: Klucel (hydroxypropylcellulose) (HPC)): 89 % of control
- T/C (dose: 400.0 mg/kg/injection, schedule: Q01DX001 (ip), vehicle: Klucel (hydroxypropylcellulose) (HPC)): 92 % of control

Compound: CCn1c(C)c(COC(=O)NC)c(COC(=O)NC)c1-c1ccc(Cl)c(Cl)c1
- T/C (dose: 6.25 mg/kg/injection, schedule: Q01DX009 (ip), vehicle: distilled water + Tween-80): 150 % of control and 152 % of control
- T/C (dose: 12.5 mg/kg/injection, schedule: Q01DX009 (ip), vehicle: distilled water + Tween-80): 153 % of control

Compound: CCOC(=O)/C=C1/Nc2ccc(Cl)cc2NC1=O (tested in a mixture with another compound)
- T/C (dose: 50.0 mg/kg/injection, schedule: Q01DX009 (ip), vehicle: distilled water + Tween-80 + alcohol): 96 % of control
- T/C (dose: 100.0 mg/kg/injection, schedule: Q01DX009 (ip), vehicle: distilled water + Tween-80 + alcohol): 88 % of control
- T/C (dose: 200.0 mg/kg/injection, schedule: Q01DX009 (ip), vehicle: distilled water + Tween-80 + alcohol): 88 % of control

Compound: CCC[As](CCC)SC1OC(COC(C)=O)C(OC(C)=O)C(OC(C)=O)C1OC(C)=O (stereo unspecified)
- T/C [6]: 117 % of control and 88 % of control
- T/C (dose: 100.0 mg/kg/injection, schedule: Q01DX009 (ip), vehicle: saline with Tween-80): 107 % of control and 92 % of control
- T/C (dose: 200.0 mg/kg/injection, schedule: Q01DX009 (ip), vehicle: saline with Tween-80): 110 % of control and 124 % of control

Compound: CS(C)=NS(C)(=O)=O
- T/C (dose: 100.0 mg/kg/injection, schedule: Q01DX001 (ip), vehicle: saline): 113 % of control
- T/C (dose: 200.0 mg/kg/injection, schedule: Q01DX001 (ip), vehicle: saline): 106 % of control
- T/C (dose: 400.0 mg/kg/injection, schedule: Q01DX001 (ip), vehicle: saline): 107 % of control

Compound: C=CCOc1cc2c(cc1C/C=C/c1ccccc1)OCO2
- T/C (dose: 50.0 mg/kg/injection, schedule: Q01DX005 (ip), vehicle: saline with Tween-80): 102 % of control
- T/C (dose: 100.0 mg/kg/injection, schedule: Q01DX005 (ip), vehicle: saline with Tween-80): 103 % of control
- T/C (dose: 200.0 mg/kg/injection, schedule: Q01DX005 (ip), vehicle: saline with Tween-80): 109 % of control

Compound: C=C(CN1CCN(C)CC1)C(=O)c1ccccc1
- T/C (dose: 1.89 mg/kg/injection, schedule: Q01DX005 (ip), vehicle: saline): 113 % of control
- T/C (dose: 3.75 mg/kg/injection, schedule: Q01DX005 (ip), vehicle: saline): 116 % of control
- T/C (dose: 7.5 mg/kg/injection, schedule: Q01DX005 (ip), vehicle: saline): 105 % of control and 112 % of control

Compound: CC1=C(c2ccccc2)C2(c3ccccc3)[N-][n+]3c(ccc4ccccc43)C2(C)C1=O (stereo unspecified)
- T/C [4]: 97 % of control
- T/C [5]: 97 % of control

Compound: CCOc1ccc(C(C[N+](=O)[O-])Sc2ccccc2N)cc1 (stereo unspecified)
- T/C (dose: 60.0 mg/kg/injection, schedule: Q01DX005 (ip), vehicle: saline with Tween-80): 97 % of control
- T/C (dose: 120.0 mg/kg/injection, schedule: Q01DX005 (ip), vehicle: saline with Tween-80): 106 % of control
- T/C (dose: 240.0 mg/kg/injection, schedule: Q01DX005 (ip), vehicle: saline with Tween-80): 113 % of control

Compound: C[n+]1ccccc1/C=C/c1ccc2c(c1)OCO2
- T/C (dose: 6.25 mg/kg/injection, schedule: Q01DX009 (ip), vehicle: Klucel (hydroxypropylcellulose) (HPC)): 102 % of control
- T/C (dose: 12.5 mg/kg/injection, schedule: Q01DX009 (ip), vehicle: Klucel (hydroxypropylcellulose) (HPC)): 98 % of control
- T/C (dose: 25.0 mg/kg/injection, schedule: Q01DX009 (ip), vehicle: Klucel (hydroxypropylcellulose) (HPC)): 110 % of control
- T/C (dose: 50.0 mg/kg/injection, schedule: Q01DX009 (ip), vehicle: Klucel (hydroxypropylcellulose) (HPC)): 114 % of control

Compound: C#CCn1cnc2c(=S)nc[nH]c21
- T/C (dose: 180.0 mg/kg/injection, schedule: Q01DX009 (ip), vehicle: saline with Tween-80): 87 % of control

Compound: CC(=O)N(OS(C)(=O)=O)C1CCCCC1
- T/C (dose: 50.0 mg/kg/injection, schedule: Q01DX007 (ip), vehicle: saline with Tween-80): 92 % of control
- T/C (dose: 100.0 mg/kg/injection, schedule: Q01DX007 (ip), vehicle: saline with Tween-80): 100 % of control
- T/C (dose: 200.0 mg/kg/injection, schedule: Q01DX007 (ip), vehicle: saline with Tween-80): 90 % of control

Compound: O=C1NCC(COc2ccc([N+](=O)[O-])cc2)O1 (stereo unspecified)
- T/C [1]: 109 % of control
- T/C [2]: 90 % of control
- T/C [3]: 93 % of control

Reference: PubChem BioAssay AID330 (DTP/NCI, 2004)
